Experimental data as given in PubChem BioAssay AID367 (MTDP, 2006).
The source made the active and inactive calls. The rule behind the calls is not given here.

The compounds below were run against Gag-Pol polyprotein (Human immunodeficiency virus type 2 subtype A (isolate ROD)) (UniProt P04584) (assay: Reverse transcriptase ribonuclease H inhibitors, biochemical concentration-response (AID 367)). Settings: HIV-2 RNase H, FRET RNA/DNA substrate cleavage.
Chain of Gag-Pol polyprotein (Human immunodeficiency virus type 2 subtype A (isolate ROD)) (P04584 whole entry, looked up): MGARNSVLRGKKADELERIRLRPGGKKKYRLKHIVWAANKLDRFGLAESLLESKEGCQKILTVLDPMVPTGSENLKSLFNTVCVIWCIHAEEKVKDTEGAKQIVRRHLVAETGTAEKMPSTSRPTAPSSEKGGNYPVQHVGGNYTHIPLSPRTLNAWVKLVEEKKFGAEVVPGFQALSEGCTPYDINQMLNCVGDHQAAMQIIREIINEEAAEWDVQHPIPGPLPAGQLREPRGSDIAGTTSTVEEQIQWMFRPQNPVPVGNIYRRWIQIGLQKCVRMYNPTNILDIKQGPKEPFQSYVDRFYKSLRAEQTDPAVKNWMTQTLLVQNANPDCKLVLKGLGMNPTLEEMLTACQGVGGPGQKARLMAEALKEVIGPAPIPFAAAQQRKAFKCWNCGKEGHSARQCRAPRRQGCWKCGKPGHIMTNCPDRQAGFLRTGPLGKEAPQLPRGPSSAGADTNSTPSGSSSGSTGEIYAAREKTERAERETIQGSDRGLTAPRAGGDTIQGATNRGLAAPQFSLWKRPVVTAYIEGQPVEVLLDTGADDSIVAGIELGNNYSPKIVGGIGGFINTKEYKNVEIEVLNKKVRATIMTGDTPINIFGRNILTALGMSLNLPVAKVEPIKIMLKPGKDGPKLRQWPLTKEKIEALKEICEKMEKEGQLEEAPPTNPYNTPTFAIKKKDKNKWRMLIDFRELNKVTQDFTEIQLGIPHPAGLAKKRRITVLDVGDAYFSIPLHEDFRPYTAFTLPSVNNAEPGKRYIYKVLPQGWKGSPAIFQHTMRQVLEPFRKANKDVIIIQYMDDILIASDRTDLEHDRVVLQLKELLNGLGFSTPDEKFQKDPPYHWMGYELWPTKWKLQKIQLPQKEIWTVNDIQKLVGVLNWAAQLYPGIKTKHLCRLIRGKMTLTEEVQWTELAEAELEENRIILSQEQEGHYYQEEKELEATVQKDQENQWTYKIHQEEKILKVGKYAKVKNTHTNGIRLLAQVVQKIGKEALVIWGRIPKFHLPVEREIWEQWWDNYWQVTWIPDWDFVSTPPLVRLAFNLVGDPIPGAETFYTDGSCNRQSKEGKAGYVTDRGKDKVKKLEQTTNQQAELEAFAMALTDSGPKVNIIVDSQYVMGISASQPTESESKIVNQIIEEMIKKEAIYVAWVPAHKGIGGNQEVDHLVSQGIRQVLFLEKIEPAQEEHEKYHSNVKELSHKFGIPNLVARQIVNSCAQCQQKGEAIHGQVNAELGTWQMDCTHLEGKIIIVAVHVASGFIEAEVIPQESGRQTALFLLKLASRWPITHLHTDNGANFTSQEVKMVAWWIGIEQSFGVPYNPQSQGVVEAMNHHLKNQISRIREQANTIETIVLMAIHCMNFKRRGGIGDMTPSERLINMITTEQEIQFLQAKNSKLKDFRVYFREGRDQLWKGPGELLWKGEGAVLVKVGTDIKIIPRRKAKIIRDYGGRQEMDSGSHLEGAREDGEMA
O=C1c2ccccc2C(=O)c2c1cc(O)c(O)c2O showed an IC50 of 0.4 µM. With CC1=NN(c2ccc(S(N)(=O)=O)cc2)C(=O)/C1=C/c1ccc(-c2ccc(Cl)cc2Cl)o1 the IC50 was 3.6 µM. Nc1ccc(N=Nc2ccc(-c3ccc(O)cc3)cc2)c2ccc(S(=O)(=O)O)cc12 gave an IC50 of 6.3 µM. For O=C1C=C(NCCc2cc(Br)c(O)c(Br)c2)C(=O)c2ncccc21, the IC50 was 1.7 µM. CC(C)c1ccc(O)c(O)c(=O)c1 was tested, and the IC50 was 1 µM. CN(C)S(=O)(=O)c1ccc(Nc2ccc(O)c3c2C(=O)c2c([N+](=O)[O-])ccc(O)c2C3=O)cc1 gave an IC50 of 8 µM. For COC(=O)c1cc2cc3cc4cc(CC(=O)O)c(C(=O)/C=C(\O)c5ccccc5O)c(OC)c4c(OC)c3c(O)c2c(=O)o1, the IC50 was 8.6 µM. In the case of C[C@@H]1[C@H](O)c2c(c3c(c4c(-c5ccccc5)cc(=O)oc24)OC(C)(C)C=C3)O[C@@H]1C, the IC50 is reported as “inactive”. With CC(=O)O[C@H](C)[C@@H]1C2=C(C(=O)C[C@]1(C)O)C(=O)c1c(ccc(-c3ccc4c(c3O)C(=O)C3=C(C4=O)[C@@H]([C@@H](C)OC(C)=O)[C@@](C)(O)CC3=O)c1O)C2=O the IC50 was “inactive”. With O=C(O)CCc1c2ccc(=O)c(O)c-2oc2c(O)c(O)ccc12 the IC50 was 0.6 µM. Work on Cc1c(O)c(Br)c(C)c(O)c1Br (tested in a mixture with another compound) yielded an IC50 of 0.7 µM. COc1cc(C)cc2c(-c3c(O)cc(O)c4c3C[C@@H](C)N[C@@H]4C)cc(-c3cc(-c4c(O)cc(O)c5c4C[C@@H](C)N[C@@H]5C)c4cc(C)cc(OC)c4c3O)c(O)c12 showed an IC50 of 2.1 µM. With Cc1c(Cl)ccc2c1NC(C(=O)O)C1CC=CC21 (configuration not stated) the IC50 was “inactive”. In the case of Cc1ccc(C(=O)NC(=S)Nc2ccc(-c3nc4ccccc4s3)cc2)cc1[N+](=O)[O-], the IC50 is reported as “inactive”. Work on CCOc1ccc(C(=O)Nc2ccc3c(c2)C(=O)c2ccccc2C3=O)cc1 yielded an IC50 of 4.3 µM. O=C1/C(=C\c2ccc(O)c(O)c2)SC(=S)N1c1cccc(Cl)c1 showed an IC50 of 6.6 µM. CCOC(=O)Oc1c(OC)cc(C(=O)O[C@@H]2C[C@@H]3CN4CCc5c([nH]c6cc(OC)ccc56)[C@H]4C[C@@H]3[C@H](C(=O)OC)[C@H]2OC)cc1OC was tested, and the IC50 was > 100 µM (inactive). CCN1C(=O)/C(=C/c2ccoc2)C(=O)NC1=S was tested, and the IC50 was “inactive”. CC1C2C=CC1C(c1c3ccc(=O)c(O)c-3oc3c(O)c(O)ccc13)C2C(=O)O (configuration not stated) was tested, and the IC50 was 0.5 µM. Compound O=C(O)/C=C/c1c2ccc(=O)c(O)c-2oc2c(O)c(O)ccc12 has an IC50 of 0.5 µM. O=C1O/C(=C(/C(=O)O)c2ccc(O)cc2)C(O)=C1c1cc2c3c(c(O)cc(C4=C(O)/C(=C(\C(=O)O)c5ccc(O)cc5)OC4=O)c3c1)OC2=O showed an IC50 of 1.4 µM. In the case of Cc1cc(O)c2c(c1O)C(=O)c1cccc(O)c1C2=O, the IC50 is reported as > 100 µM (inactive). In the case of S=C(Nc1ccc2c(c1)Cc1ccccc1-2)Nc1ccc2c(c1)Cc1ccccc1-2, the IC50 is reported as “inactive”. O=C1C(Cl)=CC(=NS(=O)(=O)c2ccccc2)C=C1Cl was tested, and the IC50 was 1 µM. With c1ccc(C(c2cccc3c2ccc2ccccc23)C(c2ccccc2)c2cccc3c2ccc2ccccc23)cc1 (configuration not stated) the IC50 was “inactive”. Work on Cc1ccc(C)n1-c1ccc(SCC(=O)O)cc1 yielded an IC50 of 2 µM. Work on O=C(Nc1ccc(N2CCN(C(=O)c3ccccc3)CC2)cc1)c1ccc(-c2ccccc2)cc1 yielded an IC50 of 2.6 µM. For O=S(=O)(O)c1cc(N=[N+]([O-])c2cc(S(=O)(=O)O)c3ccccc3c2)cc2ccccc12, the IC50 was “inactive”. Compound O=C1c2ccc(O)cc2C(=O)c2c1ccc(O)c2O has an IC50 of 2 µM. With Cc1sc(NC(=O)C2CC3CCC2C3)c(C(N)=O)c1C (configuration not stated) the IC50 was “inactive”. For O=C1C(Cl)=C(Nc2ccc(S(=O)(=O)Nc3ccccn3)cc2)C(=O)c2ccccc21, the IC50 was 3.4 µM. COc1cc(C=O)ccc1OCCCOc1cccc(Oc2ccccc2)c1 was tested, and the IC50 was > 100 µM (inactive). COc1ccc(NC(=O)c2c(N)sc(-c3ccccc3)c2C)cc1 gave an IC50 of 9 µM. With Cc1nn(CC(=O)Nc2sc(C)c(C)c2C(N)=O)c(C)c1[N+](=O)[O-] the IC50 was 4.3 µM. Compound C[C@]12CC[C@H]3[C@@H](CCC4=CC(=O)CC[C@@]43C)[C@@H]1CC[C@@H]2C(=O)COS(=O)(=O)c1ccc(Br)cc1 has an IC50 of 7.1 µM. For CC(C)=CCC/C(C)=C/Cc1cc(/C=C/c2cc(O)c(C/C=C(\C)CCC=C(C)C)c(O)c2)cc(O)c1O, the IC50 was 8.2 µM. In the case of O=S(=O)(Nc1cccc(C(F)(F)F)c1)c1ccc2ccccc2c1, the IC50 is reported as “inactive”. Cc1ccc(C=C2C(=O)NC(=S)N(c3ccccc3Cl)C2=O)o1 was tested, and the IC50 was “inactive”. In the case of COc1cc(/C=N\c2sc3c(c2C(=O)NCc2ccccc2)CCCC3)cc(Cl)c1O, the IC50 is reported as 2.8 µM. For CN(C)CS/C(N)=N/C(O)C(Cl)(Cl)Cl (configuration not stated), the IC50 was 6 µM. Work on NC(=O)c1c(NC(=O)CCc2ccccc2)sc2c1CCCCCC2 yielded an IC50 of 1.7 µM. Compound Cc1ccc(-n2c(/C=C/c3ccc(O)c(O)c3)nc3ccccc3c2=O)cc1 has an IC50 of 3.8 µM. CC(=O)C1=C(O)[C@@]2(O)C(=O)c3c(c(C)c4ccc(C)c(O)c4c3O)C[C@H]2[C@@H](N)C1=O gave an IC50 of 4.4 µM. O=C(N/N=C/c1ccc(/C=N/NC(=O)c2ccc(O)c(O)c2)cc1)c1ccc(O)c(O)c1 gave an IC50 of 3.8 µM. Work on CC(C)=Cc1cc(CCC/C(C)=C/Cc2c(O)cc(C)c(C(=O)O)c2O)co1 yielded an IC50 of 5.7 µM. Compound Oc1c(Br)cc(/C=N/Nc2nnc3c(n2)[nH]c2ccccc23)c(Br)c1O has an IC50 of 2.3 µM. Work on COc1ccc(-c2nc3sc(-c4ccc(OC)cc4)nc3s2)cc1 yielded an IC50 of 2.9 µM. O=C(O)C1Nc2c(Cl)cc(Cl)cc2C2C=CCC12 (configuration not stated) was tested, and the IC50 was “inactive”. In the case of O=C(N/N=C/c1ccccc1Cl)c1cc(O)c(O)c(O)c1, the IC50 is reported as 0.8 µM. Cc1ccc(N2C(=O)/C(=C/c3ccc(O)c(O)c3)SC2=S)cc1C gave an IC50 of 4 µM. Work on C=CCn1c(N)c(-c2nc3ccccc3[nH]2)sc1=S yielded an IC50 of 3.9 µM. In the case of CCCc1cc(=O)oc2c3c(c4c(c12)OC(C)(C)C=C4)O[C@H](C)[C@@H](C)[C@H]3OC, the IC50 is reported as “inactive”. Compound O=c1oc2ccccc2c(O)c1/C=C1\C=Nc2ccccc21 has an IC50 of 5 µM. O=C1C=C/C(=N\S(=O)(=O)c2cc(Cl)ccc2Cl)C=C1Cl showed an IC50 of 2 µM. With N#Cc1c(N)nc(SCC(=O)c2ccc(O)c(O)c2)c(C#N)c1-c1ccc(O)cc1 the IC50 was 0.43 µM. Compound O=[N+]([O-])c1ccc(S(=O)(=O)Cc2ccccc2)c2nonc12 has an IC50 of 5 µM. O=C1c2cc([N+](=O)[O-])ccc2-c2ccc3c4ccc5c6c(ccc(c7ccc1c2c73)c64)C(=O)c1cc([N+](=O)[O-])ccc1-5 showed an IC50 of 4 µM. Cc1ccc(C2COc3cc(O)c(O)cc3C2)cc1 (configuration not stated) was tested, and the IC50 was 0.6 µM. With C=CC1=C(C)C2=NC1=CC1=NC(=CC3=C(C)C4=C(O)C(C(=O)OC)C(=C5NC(=C2)C(C)C5CCC(=O)OC/C=C(\C)CCCC(C)CCCC(C)CCCC(C)C)C4=N3)C(CC)=C1C (configuration not stated) the IC50 was > 100 µM (inactive). For CCCCCCCCCCCCCCCCCCOCC(O)CO (configuration not stated), the IC50 was > 100 µM (inactive). With Cc1onc(-c2ccccc2)c1C(=O)Nc1sc(C)c(C)c1C(N)=O the IC50 was “inactive”. O=C1NC(=S)N(c2cccc(Cl)c2)C(=O)/C1=C\C=C\c1ccco1 showed an IC50 of 7 µM. With C[C@]12Cc3cnc(-c4ccccc4)nc3C[C@@H]1CC[C@@H]1[C@@H]2CC[C@@]2(C)[C@H]1CC[C@]2(C)O the IC50 was “inactive”. Compound Cc1ccc(-c2n[nH]c(=S)n2/N=C/c2ccc(O)c(O)c2O)cc1 has an IC50 of 3.8 µM. In the case of Oc1cc(O)c2cc(O)c(-c3ccc(O)c(O)c3)[o+]c2c1, the IC50 is reported as 0.8 µM. COc1cccc(-c2nc3cc(NC(=O)/C=C\c4ccccc4)ccc3o2)c1 was tested, and the IC50 was 9.2 µM. In the case of Cc1cccc(NC(=O)c2c(NC(=O)c3ccc([N+](=O)[O-])cc3)sc3c2CCCC3)c1, the IC50 is reported as 2.7 µM.
